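48-hour exposure; five concentrations; linearly interpolated endpoints. TGI marks complete inhibition of growth.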
Assays:
Test in all cases: NCI-60 cell line screen, 48 h
HL-60(TB) leukemia = system: HL-60(TB) leukemia
CCRF-CEM leukemia = system: CCRF-CEM leukemia
EKVX NSCLC = system: EKVX NSCLC
SR leukemia = system: SR leukemia
HOP-92 NSCLC = system: HOP-92 NSCLC
SF-295 CNS = system: SF-295 CNS
HCT-116 colon = system: HCT-116 colon
NCI-H23 lung = system: NCI-H23 lung
K-562 leukemia = system: K-562 leukemia
COLO 205 colon = system: COLO 205 colon
A549 NSCLC = system: A549 NSCLC
U251 CNS = system: U251 CNS
DMS 114 small cell lung = system: DMS 114 small cell lung
DLD-1 colon = system: DLD-1 colon
HOP-18 NSCLC = system: HOP-18 NSCLC
SF-268 CNS = system: SF-268 CNS
RXF 393 renal = system: RXF 393 renal
HCC-2998 colon = system: HCC-2998 colon
CAKI-1 renal = system: CAKI-1 renal
SF-539 CNS = system: SF-539 CNS
HT29 colon = system: HT29 colon
LXFL 529 NSCLC = system: LXFL 529 NSCLC
MALME-3M melanoma = system: MALME-3M melanoma
HCT-15 colon = system: HCT-15 colon
NCI-H522 lung = system: NCI-H522 lung
XF 498 CNS = system: XF 498 CNS
OVCAR-3 ovarian = system: OVCAR-3 ovarian
SK-OV-3 ovarian = system: SK-OV-3 ovarian
HOP-62 NSCLC = system: HOP-62 NSCLC
A498 renal = system: A498 renal
KM20L2 colon = system: KM20L2 colon
DMS 273 small cell lung = system: DMS 273 small cell lung
SW-620 colon = system: SW-620 colon
M14 melanoma = system: M14 melanoma
RPMI-8226 leukemia = system: RPMI-8226 leukemia
M19-MEL melanoma = system: M19-MEL melanoma
SK-MEL-5 melanoma = system: SK-MEL-5 melanoma
OVCAR-5 ovarian = system: OVCAR-5 ovarian
IGROV1 ovarian = system: IGROV1 ovarian
SK-MEL-28 melanoma = system: SK-MEL-28 melanoma
786-0 renal = system: 786-0 renal
NCI-H460 lung = system: NCI-H460 lung
LOX IMVI melanoma = system: LOX IMVI melanoma
UO-31 renal = system: UO-31 renal
OVCAR-8 ovarian = system: OVCAR-8 ovarian
TK-10 renal = system: TK-10 renal
SNB-19 CNS = system: SNB-19 CNS
KM12 colon = system: KM12 colon
SNB-78 CNS = system: SNB-78 CNS
NCI-H226 lung = system: NCI-H226 lung
MOLT-4 leukemia = system: MOLT-4 leukemia
UACC-257 melanoma = system: UACC-257 melanoma
SN12C renal = system: SN12C renal
SK-MEL-2 melanoma = system: SK-MEL-2 melanoma
SNB-75 CNS = system: SNB-75 CNS
ACHN renal = system: ACHN renal
UACC-62 melanoma = system: UACC-62 melanoma
RXF-631 renal = system: RXF-631 renal
OVCAR-4 ovarian = system: OVCAR-4 ovarian

Measured: TGI

O=C(/C=C/c1c(O)ccc2ccccc12)c1cccc2ccccc12
> 67.8 µM: CCRF-CEM leukemia
> 88.6 µM: K-562 leukemia
> 78 µM: RPMI-8226 leukemia
> 100 µM: EKVX NSCLC | SR leukemia | HOP-92 NSCLC | SF-295 CNS | HCT-116 colon | NCI-H23 lung | COLO 205 colon | A549 NSCLC | U251 CNS | DMS 114 small cell lung | DLD-1 colon | HOP-18 NSCLC | SF-268 CNS | RXF 393 renal | HCC-2998 colon | CAKI-1 renal | SF-539 CNS | HT29 colon | LXFL 529 NSCLC | MALME-3M melanoma | HCT-15 colon | NCI-H522 lung | XF 498 CNS | OVCAR-3 ovarian | SK-OV-3 ovarian | HOP-62 NSCLC | A498 renal | KM20L2 colon | DMS 273 small cell lung | M14 melanoma | SK-MEL-5 melanoma | OVCAR-5 ovarian | IGROV1 ovarian | SK-MEL-28 melanoma | 786-0 renal | NCI-H460 lung | LOX IMVI melanoma | UO-31 renal | OVCAR-8 ovarian | TK-10 renal | SNB-19 CNS | KM12 colon | SNB-78 CNS | NCI-H226 lung | MOLT-4 leukemia | UACC-257 melanoma | SN12C renal | SK-MEL-2 melanoma | SNB-75 CNS | ACHN renal | UACC-62 melanoma
> 63.7 µM: HL-60(TB) leukemia
> 51.6 µM: SW-620 colon
71.9 µM: M19-MEL melanoma

COc1ccc(CCNCc2cccc(OC)c2OC)cc1OC
> 100 µM: HL-60(TB) leukemia | CCRF-CEM leukemia | EKVX NSCLC | HOP-92 NSCLC | SF-295 CNS | NCI-H23 lung | K-562 leukemia | COLO 205 colon | A549 NSCLC | DMS 114 small cell lung | DLD-1 colon | SF-268 CNS | RXF 393 renal | HCC-2998 colon | CAKI-1 renal | HT29 colon | LXFL 529 NSCLC | MALME-3M melanoma | HCT-15 colon | NCI-H522 lung | XF 498 CNS | OVCAR-3 ovarian | SK-OV-3 ovarian | HOP-62 NSCLC | KM20L2 colon | DMS 273 small cell lung | SW-620 colon | M14 melanoma | RPMI-8226 leukemia | M19-MEL melanoma | SK-MEL-5 melanoma | OVCAR-5 ovarian | IGROV1 ovarian | SK-MEL-28 melanoma | 786-0 renal | NCI-H460 lung | LOX IMVI melanoma | UO-31 renal | RXF-631 renal | OVCAR-8 ovarian | TK-10 renal | SNB-19 CNS | KM12 colon | SNB-78 CNS | MOLT-4 leukemia | UACC-257 melanoma | SN12C renal | SK-MEL-2 melanoma | SNB-75 CNS | ACHN renal | UACC-62 melanoma | OVCAR-4 ovarian

O=C(O)c1cc(-c2ccccc2O)nc2ccccc12
> 100 µM: CCRF-CEM leukemia | EKVX NSCLC | SF-295 CNS | HCT-116 colon | NCI-H23 lung | K-562 leukemia | COLO 205 colon | A549 NSCLC | U251 CNS | DMS 114 small cell lung | DLD-1 colon | HOP-18 NSCLC | SF-268 CNS | HCC-2998 colon | CAKI-1 renal | SF-539 CNS | HT29 colon | LXFL 529 NSCLC | MALME-3M melanoma | HCT-15 colon | NCI-H522 lung | XF 498 CNS | OVCAR-3 ovarian | SK-OV-3 ovarian | HOP-62 NSCLC | A498 renal | KM20L2 colon | SW-620 colon | M14 melanoma | RPMI-8226 leukemia | M19-MEL melanoma | SK-MEL-5 melanoma | OVCAR-5 ovarian | IGROV1 ovarian | SK-MEL-28 melanoma | 786-0 renal | NCI-H460 lung | UO-31 renal | OVCAR-8 ovarian | TK-10 renal | SNB-19 CNS | KM12 colon | SNB-78 CNS | MOLT-4 leukemia | UACC-257 melanoma | SN12C renal | SK-MEL-2 melanoma | SNB-75 CNS | ACHN renal | UACC-62 melanoma | OVCAR-4 ovarian

Cc1[nH]c(=O)nc(CC(O)(c2ccccc2)c2ccccc2)c1-c1ccccc1
> 100 µM: HL-60(TB) leukemia | CCRF-CEM leukemia | EKVX NSCLC | HOP-92 NSCLC | SF-295 CNS | HCT-116 colon | NCI-H23 lung | K-562 leukemia | COLO 205 colon | A549 NSCLC | U251 CNS | DMS 114 small cell lung | DLD-1 colon | HOP-18 NSCLC | SF-268 CNS | RXF 393 renal | HCC-2998 colon | CAKI-1 renal | SF-539 CNS | HT29 colon | LXFL 529 NSCLC | MALME-3M melanoma | HCT-15 colon | NCI-H522 lung | OVCAR-3 ovarian | SK-OV-3 ovarian | HOP-62 NSCLC | A498 renal | KM20L2 colon | DMS 273 small cell lung | SW-620 colon | M14 melanoma | M19-MEL melanoma | SK-MEL-5 melanoma | OVCAR-5 ovarian | IGROV1 ovarian | SK-MEL-28 melanoma | 786-0 renal | NCI-H460 lung | LOX IMVI melanoma | UO-31 renal | RXF-631 renal | OVCAR-8 ovarian | TK-10 renal | SNB-19 CNS | KM12 colon | SNB-78 CNS | NCI-H226 lung | MOLT-4 leukemia | UACC-257 melanoma | SN12C renal | SK-MEL-2 melanoma | SNB-75 CNS | ACHN renal | UACC-62 melanoma | OVCAR-4 ovarian

Source: PubChem BioAssay (NCI)
